# Reference: US8541473B2, “3-aminoxalyl-aminobenzamide derivatives and insecticidal and miticidal agents containing same as active ingredient” (Agro-Kanesho Co., Ltd., priority 2009, dated 2013)
# Key:
# Assay type in all cases: in vivo
# [1] = test system: larvae of Plutella xylostella; experiment: Insecticidal effect on larvae of Plutella xylostella (spray on potted Chinese cabbage); details: for rate of killed insects (larvae): 5 days after release of larvae, agonized larvae regarded as killed; for insecticidal effect: comparative compounds, result in words, stated against the 500 ppm result
# Procedure: The seeds of Chinese cabbage were sowed in a pot and then the seedlings were raised over 3 weeks. A water-diluted emulsion prepared according to the procedures used in the foregoing drug-preparation Example 1 was sufficiently sprayed on the leaves of these potted plants using an air brush (one concentration, once repeated). After the drug-containing liquid was air-dried, the plants were kept in a thermostatic chamber maintained at 25° C. and the larvae of the insect were set free. After 5 days from the release of the larvae, the latter was examined for whether they were died or not and whether they were in agony or not and the rates of killed insects (larvae) (%) were determined, while the agonized larvae were regarded as killed ones. In this respect, the comparative compounds used in this test were compounds A and B disclosed in JP-A-2006-306771 (Patent Document 25).
# [2] = test system: nymphs of Myzus persicae; experiment: Effect of killing larvae of Myzus persicae (leaf piece immersion); details: for rate of killed nymphs: 7th day after treatment, agonized nymphs regarded as killed; for insecticidal effect: comparative compounds, result in words, stated against the 50 ppm result
# Procedure: Three each of adults of Myzus persicae were inoculated on a cut piece (having a size of 3 cm×4 cm) of the leaf of Chinese cabbage and they were made breed for 48 hours within a thermostatic chamber maintained at a temperature of 25° C. After the removal of the adults, each cut piece of the leaf was immersed in a water-diluted emulsion prepared according to the same procedures used in the foregoing Drug-Preparation Example 1 for 5 seconds, and then kept in a thermostatic chamber maintained at 25° C. On 7th day after the foregoing treatment, the nymphs were inspected for whether they were died or not and whether they were in agony or not and the rates (%) of killed nymphs of the plant lice were determined, while the agonized nymphs were regarded as killed ones. In this respect, the comparative compounds used in this test were compounds A and B disclosed in JP-A-2006-306771.
# [3] = test system: female adults of Tetranychus urticae; experiment: Miticidal effect on adults of Tetranychus urticae (spray on bean leaf-disks); details: for rate of killed adults: 4 days after drug-spray, agonized adults regarded as killed; for insecticidal effect: comparative compounds, result in words, stated against the 50 ppm result
# Procedure: A polyethylene cup having a volume of 430 ml and filled with water was covered with a cap in which a hole (diameter: about 5 mm) had been formed at the center thereof. A cut having a width of about 5 mm was made on a circular filter paper having a diameter of 6.5 cm, the strip-like portion of the filter paper, which hung down, was inserted into the cup through the hole thereof in such a manner that the portion was immersed in the water contained in the cup, and absorbent cotton was put on the filter paper so that the water in the cup was always supplied to the absorbent cotton. Then, two leaf-disks (2 cm×5 cm) prepared from the primary leaves of bean were put on the absorbent cotton and then these two leaf-disks were inoculated with 10 female adults of Tetranychus urticae. This cup was placed in a cylinder of acrylic resin having a height of 50 cm and an inner diameter of 10 cm and a water-diluted emulsion prepared according to the same procedures used in the foregoing drug-preparation Example 1 was then sprayed on each cup in an amount of 1.35 ml per cup using an air brush (one concentration, once repeated). After the agricultural chemical was sprayed, the cups were kept in a thermostatic chamber maintained at a temperature of 25° C. After 4 days from the drug-spray, the adults were examined, under the observation by a prism binocular, for whether they were died or not and whether they were in agony or not and the rates of killed mites (adults) (%) were determined, while the agonized adults were regarded as killed ones. In this respect, the comparative compounds used in this test were compounds A and B disclosed in JP-A-2006-306771.
compound,measurement,setting,value
Cc1cc(C(F)(C(F)(F)F)C(F)(F)F)cc(C)c1NC(=O)c1cccc(NC(=O)C(N)=O)c1 [Compound 1-1],rate of killed insects (larvae),[1]; 500 ppm,100%
Cc1cc(C(F)(C(F)(F)F)C(F)(F)F)cc(C)c1NC(=O)c1cccc(NC(=O)C(=O)NC2CCCC2)c1 [Compound 1-19],rate of killed insects (larvae),[1]; 50 ppm,100%
Cc1cc(C(F)(C(F)(F)F)C(F)(F)F)cc(C)c1NC(=O)c1cccc(NC(=O)C(=O)N(C)C)c1 [Compound 1-21],rate of killed nymphs,[2]; 50 ppm,100%
Cc1cc(C(F)(C(F)(F)F)C(F)(F)F)cc(C)c1NC(=O)c1cccc(NC(=O)C(=O)N(C)C(C)C)c1 [Compound 1-24],rate of killed nymphs,[2]; 50 ppm,100%
Cc1cc(C(F)(C(F)(F)F)C(F)(F)F)cc(C)c1NC(=O)c1cccc(NC(=O)C(=O)N(C)C(C)(C)C)c1 [Compound 1-28],rate of killed insects (larvae),[1]; 5 ppm,100%
same,rate of killed adults,[3]; 5 ppm,100%
same,rate of killed nymphs,[2]; 50 ppm,100%
CCN(CC)C(=O)C(=O)Nc1cccc(C(=O)Nc2c(C)cc(C(F)(C(F)(F)F)C(F)(F)F)cc2C)c1 [Compound 1-30],rate of killed insects (larvae),[1]; 50 ppm,100%
"Cc1cc(C(F)(C(F)(F)F)C(F)(F)F)cc(C)c1NC(=O)c1cccc(NC(=O)C(=O)N2CCCC2)c1 [Compound 1-33, 3-(pyrrolidin-1-yl-oxalylamino)-N-(2,6-dimethyl-4-heptafluoroisopropyl)phenylbenzamide]",rate of killed nymphs,[2]; 50 ppm,100%
CCc1cc(C(F)(C(F)(F)F)C(F)(F)F)cc(C)c1NC(=O)c1cccc(NC(=O)C(=O)N(C)C(C)C)c1 [Compound 1-40],rate of killed adults,[3]; 5 ppm,100%
CCc1cc(C(F)(C(F)(F)F)C(F)(F)F)cc(C)c1NC(=O)c1cccc(NC(=O)C(=O)N(C)C(C)(C)C)c1 [Compound 1-44],rate of killed insects (larvae),[1]; 5 ppm,100%
same,rate of killed adults,[3]; 5 ppm,100%
same,rate of killed nymphs,[2]; 50 ppm,100%
CCc1cc(C(F)(C(F)(F)F)C(F)(F)F)cc(C)c1NC(=O)c1cccc(NC(=O)C(=O)N(C)C2CCC2)c1 [Compound 1-45],rate of killed insects (larvae),[1]; 12.5 ppm,100%
CCc1cc(C(F)(C(F)(F)F)C(F)(F)F)cc(C)c1NC(=O)c1cccc(NC(=O)C(=O)N(C)C(C)(C)CC)c1 [Compound 1-46],rate of killed adults,[3]; 12.5 ppm,100%
CCc1cc(C(F)(C(F)(F)F)C(F)(F)F)cc(C)c1NC(=O)c1cccc(NC(=O)C(=O)N(C)C2CCCC2)c1 [Compound 1-47],rate of killed insects (larvae),[1]; 50 ppm,100%
same,rate of killed nymphs,[2]; 50 ppm,100%
CCc1cc(C(F)(C(F)(F)F)C(F)(F)F)cc(C)c1NC(=O)c1cccc(NC(=O)C(=O)N(CC)C(C)(C)C)c1 [Compound 1-50],rate of killed adults,[3]; 12.5 ppm,100%
Cc1cc(C(F)(C(F)(F)F)C(F)(F)F)ccc1NC(=O)c1cccc(NC(=O)C(=O)N(C)C)c1 [Compound 1-53],rate of killed insects (larvae),[1]; 50 ppm,100%
CCc1cc(C(F)(C(F)(F)F)C(F)(F)F)cc(CC)c1NC(=O)c1cccc(NC(=O)C(=O)N(C)CC)c1 [Compound 1-57],rate of killed insects (larvae),[1]; 5 ppm,100%
CCN(C)C(=O)C(=O)Nc1cccc(C(=O)Nc2c(C)cc(C(F)(C(F)(F)F)C(F)(F)F)cc2Br)c1 [Compound 1-62],rate of killed insects (larvae),[1]; 12.5 ppm,100%
same,rate of killed insects (larvae),[1]; 50 ppm,100%
same,rate of killed insects (larvae),[1]; 500 ppm,100%
Cc1cc(C(F)(C(F)(F)F)C(F)(F)F)cc(I)c1NC(=O)c1cccc(NC(=O)C(=O)N(C)C(C)(C)C)c1 [Compound 1-65],rate of killed nymphs,[2]; 12.5 ppm,100%
CCN(C)C(=O)C(=O)Nc1cccc(C(=O)Nc2c(Br)cc(C(F)(C(F)(F)F)C(F)(F)F)cc2C(C)C)c1 [Compound 1-74],rate of killed adults,[3]; 50 ppm,100%
Cc1cc(C(F)(C(F)(F)F)C(F)(F)F)cc(C)c1NC(=O)c1cccc(NC(=O)C(=O)NCCCl)c1 [Compound 1-75],rate of killed insects (larvae),[1]; 5 ppm,100%
CCc1cc(C(F)(C(F)(F)F)C(F)(F)F)cc(C)c1NC(=O)c1cccc(NC(=O)C(=O)N(C)CCCl)c1 [Compound 1-78],rate of killed adults,[3]; 50 ppm,100%
Cc1cc(C(F)(C(F)(F)F)C(F)(F)F)cc(C)c1NC(=O)c1cccc(NC(=O)C(=O)NCCBr)c1 [Compound 1-80],rate of killed insects (larvae),[1]; 500 ppm,100%
Cc1cc(C(F)(C(F)(F)F)C(F)(F)F)cc(C)c1NC(=O)c1cccc(NC(=O)C(=O)NCCCCl)c1 [Compound 1-83],rate of killed insects (larvae),[1]; 50 ppm,100%
CCc1cc(C(F)(C(F)(F)F)C(F)(F)F)cc(C)c1NC(=O)c1cccc(NC(=O)C(=O)N(C)CC(F)(F)F)c1 [Compound 1-87],rate of killed nymphs,[2]; 5 ppm,100%
same,rate of killed nymphs,[2]; 50 ppm,100%
CC(C)c1cc(C(F)(C(F)(F)F)C(F)(F)F)cc(Br)c1NC(=O)c1cccc(NC(=O)C(=O)N(C)CC(F)(F)F)c1 [Compound 1-96],rate of killed insects (larvae),[1]; 12.5 ppm,100%
same,rate of killed adults,[3]; 12.5 ppm,100%
CCc1cc(C(F)(C(F)(F)F)C(F)(F)F)cc(C)c1NC(=O)c1cccc(NC(=O)C(=O)N(CC)CC(F)(F)F)c1 [Compound 1-97],rate of killed nymphs,[2]; 12.5 ppm,100%
CCc1cc(C(F)(C(F)(F)F)C(F)(F)F)cc(C)c1NC(=O)c1cccc(NC(=O)C(=O)N(C)CC(F)F)c1 [Compound 1-100],rate of killed adults,[3]; 12.5 ppm,100%
"CCc1cc(C(F)(C(F)(F)F)C(F)(F)F)cc(C)c1NC(=O)c1cccc(NC(=O)C(=O)N(C)CCF)c1 [Compound 1-103, 3-(N-(2-fluoroethyl)-N-methylaminooxalylamino)-N-(2-ethyl-4-heptafluoroisopropyl-6-methyl)phenylbenzamide]",rate of killed adults,[3]; 12.5 ppm,100%
CCc1cc(C(F)(C(F)(F)F)C(F)(F)F)cc(Br)c1NC(=O)c1cccc(NC(=O)C(=O)N(C)CC(F)F)c1 [Compound 1-109],rate of killed insects (larvae),[1]; 12.5 ppm,100%
same,rate of killed insects (larvae),[1]; 50 ppm,100%
same,rate of killed insects (larvae),[1]; 500 ppm,100%
same,rate of killed adults,[3]; 12.5 ppm,100%
same,rate of killed adults,[3]; 50 ppm,100%
same,rate of killed nymphs,[2]; 12.5 ppm,100%
same,rate of killed nymphs,[2]; 50 ppm,100%
COc1cc(C(F)(C(F)(F)F)C(F)(F)F)cc(Cl)c1NC(=O)c1cccc(NC(=O)C(=O)N(C)CC(F)(F)F)c1 [Compound 1-112],rate of killed insects (larvae),[1]; 12.5 ppm,100%
same,rate of killed insects (larvae),[1]; 50 ppm,100%
same,rate of killed adults,[3]; 50 ppm,100%
CCN(C)C(=O)C(=O)Nc1cccc(C(=O)Nc2c(Cl)cc(C(F)(C(F)(F)F)C(F)(F)F)cc2OC(F)(F)F)c1 [Compound 1-115],rate of killed nymphs,[2]; 12.5 ppm,100%
CCc1cc(C(F)(F)C(F)(F)C(F)(F)F)cc(C)c1NC(=O)c1cccc(NC(=O)C(=O)N(C)C(C)(C)C)c1 [Compound 2-2],rate of killed nymphs,[2]; 12.5 ppm,100%
CCc1cc(C(F)(F)C(F)(F)C(F)(F)F)cc(C)c1NC(=O)c1cccc(NC(=O)C(=O)N(C)CC(F)(F)F)c1 [Compound 2-3],rate of killed insects (larvae),[1]; 12.5 ppm,100%
Cc1cc(C(F)(C(F)(F)F)C(F)(F)Br)cc(C)c1NC(=O)c1cccc(NC(=O)C(=O)N(C)CC(F)(F)F)c1 (centres unmarked) [Compound 2-15],rate of killed nymphs,[2]; 12.5 ppm,100%
"COC(=O)C(=O)Nc1cccc(C(=O)Nc2c(C)cc(C(F)(C(F)(F)F)C(F)(F)F)cc2C)c1 [compound A, reference compound]",insecticidal effect,[1],did not show any insecticidal effect
same,insecticidal effect,[3],did not show any insecticidal effect
same,insecticidal effect,[2],did not show any insecticidal effect
"CCOC(=O)C(=O)Nc1cccc(C(=O)Nc2c(C)cc(C(F)(C(F)(F)F)C(F)(F)F)cc2C)c1 [compound B, reference compound]",insecticidal effect,[1],did not show any insecticidal effect
same,insecticidal effect,[3],did not show any insecticidal effect
same,insecticidal effect,[2],did not show any insecticidal effect
